≈ marks a conversion by molar mass, not a printed value. Entries after “also recorded” stand apart in the source; their conditions may differ. Read-outs that look alike come from different tables or passages of the source.
Assays:
[1] = Solubility study of AST-3424 (shaking at 25° C., HPLC content); assay type: physicochemical; settings: for solubility / solubility at 1 h / solubility at 4 h / solubility at 8 h / solubility at 24 h / solubility at 48 h: thermodynamic from solid; for solubility at 1 h / solubility at 4 h / solubility at 8 h / solubility at 24 h / solubility at 48 h: read-out: Content (solubility test)
Protocol: An appropriate amount of AST-3424 (hereinafter called active pharmaceutical ingredients or API) was taken and placed in a suitable container containing 40 ml of the mentioned-above solutions (20 ml for organic solvents) respectively until excess oil droplets of AST-3424 existed in the solution.
Samples were put in a constant temperature shaking incubator at 25° C. and shaken at a proper speed (100 rpm). The samples were taken and checked pH values at each appointed time as specified in Table 1. Then, the samples were centrifuged (1000 rpm, 10 minutes), and added the corresponding solution or organic solvent (to dissolve the API for solubility study) to dilute to an appropriate concentration for HPLC analysis, so as to obtain solubility data. It should be noted that the dilution ratio after test was accurately recorded.
In the solubility study, for a determination of sample contents, 1 ml of culture medium were measured respectively, and then centrifuged at 1000 rpm for 10 minutes. Subnatant after centrifugation were collected respectively for HPLC analysis. In the solution stability study, the samples may be provided directly for HPLC analysis.
The contents were determined by a HPLC method: AST-3424 was used as an external standard for quantification.
According to the solution stability results, AST-3424 is very unstable in the acetate buffer of pH 4.5. Therefore, the phosphate buffer of pH 6.8, the phosphate buffer of pH 7.4, the alkaline borate buffer of pH 10.0, and the purified water were selected for the solubility study. An appropriate amount of AST-3424 was weighed and placed in 40 ml of medium (8 ml ethanol/propylene glycol (50:50, v/v) was used), until excess flocci was present in the solution.

[2] = as above; assay type: physicochemical; settings: methanol, propanol, butanol, ethylene glycol, propylene glycol, glycerol, 1,3-butanediol, 1,2-butanediol; initial investigation
[3] = alkaline borate buffer, 25 °C, pH 10, aqueous buffer, pH 10.0 (Alkaline borate buffer)
[4] = ethanol/propylene glycol (50:50, v/v), 25 °C, organic solvent or mixture, Ethanol/Propylene glycol (50:50, v/v)
[5] = phosphate buffer of pH 6.8, 25 °C, pH 6.8, aqueous buffer, pH 6.8 (Phosphate buffer)
[6] = phosphate buffer of pH 7.4, 25 °C, pH 7.4, aqueous buffer, pH 7.4 Phosphate buffer
[7] = phosphate buffer, 25 °C, pH 7.4, aqueous buffer, pH 7.4 Phosphate buffer
[8] = purified water, 25 °C, water, Purified water

**Q.** Which results are given for C[C@H](OP(=O)(N1CC1)N1CC1)c1ccc([N+](=O)[O-])c(Oc2cccc(C(=O)N(C)C)c2)c1 [AST-3424, (S)-1-(3-(3-N,N-Dimethylaminocarbonyl)phenoxy-4-nitrophenyl)-1-ethyl-N,N′-bis(ethylene) phosphoramidate]?
**A.** Solubility, descriptive terms ([1]; Purified water): Sparingly soluble; solubility [1, 3]: ~23 mg/mL (≈ 50 mM); solubility at 1 h [1, 3]: 23.5 mg/mL (≈ 51 mM); solubility at 4 h [1, 3]: 23.6 mg/mL (≈ 51.2 mM); solubility at 8 h [1, 3]: 23.5 mg/mL (≈ 51 mM); solubility at 24 h [1, 3]: 23.5 mg/mL (≈ 51 mM); solubility at 48 h [1, 3]: 23.7 mg/mL (≈ 51.4 mM); Solubility, descriptive terms ([1]; ethanol/propylene glycol (50:50, v/v)): easily soluble; also recorded: Freely soluble (FS); solubility at 1 h [1, 4]: 271 mg/mL (≈ 589 mM); solubility at 4 h [1, 4]: 302 mg/mL (≈ 657 mM); solubility at 8 h [1, 4]: 301 mg/mL (≈ 654 mM); solubility at 24 h [1, 4]: 299 mg/mL (≈ 649 mM); solubility at 48 h [1, 4]: 274 mg/mL (≈ 595 mM); solubility ([1]; ethanol/propylene glycol (50:50, v/v), 25 °C, organic solvent or mixture, ethanol/propylene glycol (50:50, v/v)): > 270 mg/mL; Solubility, descriptive terms ([1]; pH 6.8 (Phosphate buffer)): Sparingly soluble; Solubility, descriptive terms ([1]; pH 7.4 (Phosphate buffer)): Sparingly soluble; Solubility, descriptive terms ([1]; pH 10.0 (Alkaline borate buffer)): Sparingly soluble; solubility at 1 h [1, 5]: 23 mg/mL (≈ 50 mM); solubility at 4 h [1, 5]: 22.9 mg/mL (≈ 49.8 mM); solubility at 8 h [1, 5]: 23 mg/mL (≈ 50 mM); solubility at 24 h [1, 5]: 22.6 mg/mL (≈ 49.1 mM); solubility at 48 h [1, 5]: 22.1 mg/mL (≈ 47.9 mM); solubility at 1 h [1, 6]: 23.7 mg/mL (≈ 51.4 mM); solubility at 4 h [1, 6]: 23.5 mg/mL (≈ 51 mM); solubility at 48 h [1, 6]: 23.4 mg/mL (≈ 50.8 mM); solubility ([1]; phosphate buffer, 25 °C, pH 6.8, aqueous buffer, pH 6.8 (Phosphate buffer)): ~23 mg/mL (≈ 50 mM); solubility ([1]; phosphate buffer, 25 °C, pH 7.4, aqueous buffer, pH 7.4 (Phosphate buffer)): ~23 mg/mL (≈ 50 mM); solubility at 8 h [1, 7]: 23.6 mg/mL (≈ 51.2 mM); solubility at 24 h [1, 7]: 23.7 mg/mL (≈ 51.4 mM); solubility ([1]; purified water, 25 °C, water): ~20 mg/mL (≈ 43.4 mM); solubility at 1 h [1, 8]: 20.9 mg/mL (≈ 45.4 mM); solubility at 4 h [1, 8]: 20.1 mg/mL (≈ 43.7 mM); solubility at 8 h [1, 8]: 19.7 mg/mL (≈ 42.7 mM); solubility at 24 h [1, 8]: 18.8 mg/mL (≈ 40.9 mM); solubility at 48 h [1, 8]: 17.8 mg/mL (≈ 38.6 mM); Solubility, in words [2]: good solubility
